Laboratory results published in US9045525B2, “Amyloid β-protein-specific production-inhibiting polypeptide” (THE DOSHISHA, priority 2012, dated 2015).
Peptide text beside a SMILES is read from it.

Experiments:
[1] = test system: Aβ in the cerebrum; assay: Intraperitoneal administration to mouse, Aβ in cerebrum; assay type: in vivo; details: 150 mg/kg intraperitoneally, three consecutive days, wild-type mice
Protocol: 150 mg/kg #4 polypeptide dissolved in DMSO was intraperitoneally administered to ten wild-type mice (C57 BL/6 N Cr Slc, seven weeks old). The administration was conducted for three consecutive days. Four days after, the mice were euthanized to extract the cerebrum.
The extracted cerebrums were dissolved by using a known method, subjected to immunoprecipitation with anti-4G8 antibody, and then subjected to Western blotting using the anti-mouse Aβ antibody. An experiment was conducted in the same manner except that only DMSO was administered as the negative control experiment group (ten mice).
In the Western blotting, an experiment was conducted using 5, 10, 50, 100, and 200 pg rodent-originated Aβ as the standard reference material. FIG. 10(A−1) and […] show the results.

[2] = biological target: γ-secretase against βCTF (C99-FLAG) (Homo sapiens, UniProt P05067); assay: γ-Secretase activity inhibition experiment in vitro, C99-FLAG substrate; assay type: biochemical; details: polypeptide 50 μM, 4 hours, 37° C., Western blotting
Protocol: A polypeptide having βCTF (C99-FLAG: SEQ ID NO: 16) and mouse-derived Notch protein having a FLAG peptide at the C-terminal side (modification of NCBI Accession No. Q01705.2; SEQ ID NO: 17; hereunder referred to as “Notch”) shown in FIG. 2(A) were each made into a solution having a final concentration of 50 nM.
To these solutions, 9-7 polypeptide, 6-5 polypeptide, #1 polypeptide, #2 polypeptide, #3 polypeptide, and #4 polypeptide were added in such a manner that the final concentrations were 50 μM, followed by reacting with 50 μL of CHAPSO-solubilized membrane fraction (γ-secretase-containing fraction) for 4 hours. The reaction temperature was 37° C. As a negative control experiment, DMSO was used in place of the six types of polypeptides described above.
Each sample after completion of the reaction was measured in the following manner. As shown in FIG. 2(A), a sample using C99-FLAG was subjected to Western blotting using a monoclonal antibody (82E-1) that specifically recognizes the N terminal of C99-FLAG, and the amount of Aβ40 protein produced by the cleavarage by γ-secretase was measured. In contrast, the reaction sample using Notch-FLAG was subjected to Western blotting using an anti-FLAG monoclonal antibody, and the amount of NICD produced to the separete by γ-secretase was also measured. FIG. 2(B) and FIG. 2(C) show the results.
An experiment was conducted in the same manner as in Experimental Example 1 described above, except that only #1 polypeptide was used and the amount of #1 polypeptide was selected so that the final concentrations were 0.5, 1, 5, 10, 20, and 50 μM.
An experiment was conducted in the same manner as in Experimental Example 1 described above, except that S4 polypeptide was used as the polypeptide, and each addition amount was set in such a manner that the final concentrations were 1, 5, 10, 20, and 50 μM. In this Experimental Example, #4 polypeptide was added in such a manner that the final result was 50 μM.

[3] = Intraperitoneal administration of FITC-modified polypeptide, localization around the hippocampus; assay type: in vivo; details: FITC-modified #4 polypeptide, 150 mg/kg intraperitoneally, three consecutive days, mouse
Protocol: Subsequently, FITC-modified #4 polypeptide prepared by using a known method was intraperitoneally administered to a mouse. The dose was 150 mg/kg, and the administration was conducted for three consecutive days. Four days after, the mice were euthanized to prepare test pieces of tissue around the hippocampus. As the negative control experiment, DMSO was administered in place of FITC-modified #4 polypeptide.
In the figure, “CPLV” indicates the area called the “choroid plex” for producing cerebrospinal fluid.

[4] = biological target: T1, APP in CHO-K1 cells (Cricetulus griseus, UniProt A0A8C2MGG8); assay: Analysis of subcellular distribution in CHO-K1 cells; assay type: cell-based; details: Biotin-modified #4 polypeptide, avidin-modified Alexa488; CHO-K1 cells expressing endogenous APP at a low level
T1 construct: CHO-K1 cells expressing endogenous APP protein at a low level; endogenous in cells; host or cells: CHO-K1
T1 sequence (A0A8C2MGG8 18-770): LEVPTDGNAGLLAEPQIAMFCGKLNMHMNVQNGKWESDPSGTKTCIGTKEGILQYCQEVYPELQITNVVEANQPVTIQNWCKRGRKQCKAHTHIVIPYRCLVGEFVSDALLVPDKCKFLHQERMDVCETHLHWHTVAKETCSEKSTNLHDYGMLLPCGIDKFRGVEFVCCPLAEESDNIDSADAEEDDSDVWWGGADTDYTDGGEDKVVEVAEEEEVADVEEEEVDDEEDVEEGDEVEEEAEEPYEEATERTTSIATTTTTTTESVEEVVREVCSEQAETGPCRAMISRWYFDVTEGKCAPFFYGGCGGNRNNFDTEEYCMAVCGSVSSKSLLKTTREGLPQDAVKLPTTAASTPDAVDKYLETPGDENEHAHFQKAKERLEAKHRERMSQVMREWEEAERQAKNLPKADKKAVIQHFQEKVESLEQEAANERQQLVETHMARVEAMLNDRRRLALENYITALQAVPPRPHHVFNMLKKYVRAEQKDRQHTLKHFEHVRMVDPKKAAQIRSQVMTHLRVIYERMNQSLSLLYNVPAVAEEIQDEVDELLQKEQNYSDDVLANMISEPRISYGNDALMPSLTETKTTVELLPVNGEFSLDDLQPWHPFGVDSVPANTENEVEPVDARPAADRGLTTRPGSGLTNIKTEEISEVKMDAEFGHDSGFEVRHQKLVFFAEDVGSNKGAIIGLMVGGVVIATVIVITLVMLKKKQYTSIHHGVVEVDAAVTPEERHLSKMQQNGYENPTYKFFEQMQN
Protocol: (§1) Biotin-modified #4 polypeptide was prepared using a known method. This polypeptide was allowed to react with CHO-K1 cells and the 7WD10 cells mentioned above, and the resulting cells were immobilized, and then treated with Triton X-100. Thereafter, avidin-modified Alexa488 was reacted with the above. As the negative control experiment, an experiment was conducted reacting avidin-modified Alexa 488 in place of Biotin-modified #4 polypeptide.

[5] = biological target: β-secretase against APP (APP-EQ-FLAG) (Homo sapiens, UniProt P05067); assay: β-Secretase activity inhibition experiment in vitro, APP-EQ-FLAG substrate; assay type: biochemical
Protocol: A solution containing the polypeptide having APP (APP-EQ-FLAG: SEQ ID NO: 18) as shown in FIG. 5(A) was prepared in such a manner that its final concentration was 50 nM.
To this solution, 9-7 polypeptide, 6-5 polypeptide, #1 polypeptide, #2 polypeptide, #3 polypeptide, #4 polypeptide, #5 polypeptide, #6 polypeptide, #7 polypeptide, #8 polypeptide, #9 polypeptide, and #10 polypeptide were added in such a manner that each solution had the final concentration of 50 μM, followed by reacting with 50 μL β-secretase (0.02 U/μL) for 4 hours. The reaction temperature was 37° C. As a negative control experiment, DMSO was used in place of the 12 types of polypeptides mentioned above.
After completion of the reaction, each sample was subjected to Western blotting using a monoclonal antibody (82E-1) that specifically recognizes the N terminal of APP-EQ-FLAG as shown in FIG. 5(A). Thereafter, the amount of Aβ33-FLAG protein separated by β-secretase was measured.
An experiment was conducted in the same manner as Experimental Example 4 described above except that S4 and #4 polypeptides were used as the polypeptide and the amounts of these polypeptides added were adjusted so that the final concentrations were 1, 5, 10, 20, 50, and 100 μM.

[6] = biological target: T2, APP in 7WD10 cells overexpressing APP (Homo sapiens, UniProt P05067); assay: Analysis of subcellular distribution in 7WD10 cells; assay type: cell-based; details: Biotin-modified #4 polypeptide
T2 construct: expressed in transfected cells; host or cells: 7WD10
Protocol: as §1

[7] = test system: CHO-K1 cells; assay: Mouse Aβ production inhibition experiment, CHO-K1 cells; assay type: cell-based; details: polypeptide 20 μM, CHO-K1 cells expressing mouse-type APP, anti-mouse Aβ antibody Western blotting
Protocol: #1, #2, and #4 polypeptides were added to the culture solutions of CHO-K1 cells and Neuro 2A cells (N2A) in such a manner that the final concentration was 20 μM. As a control, L685458 (i.e., a γ-secretase inhibitor) and DMSO were added thereto in such a manner that the final concentration was 20 μM.
Thereafter, Aβ contained in the cell culture medium was identified by using a Western-blotting method with an antibody (anti-mouse Aβ antibody) that recognizes Aβ. […] In the figure, L indicates L685458, which is a γ-secretase inhibitor (final concentration of 1 μM).

SMILES: CC[C@H](C)[C@H](NC(=O)[C@H](CC(=O)O)NC(=O)[C@@H](NC(=O)[C@@H](NC(=O)[C@H](CS)NC(=O)[C@H](Cc1ccc(O)cc1)NC(=O)[C@H](CS)NC(=O)[C@H](CC(=O)O)NC(=O)[C@H](CS)NC(=O)[C@@H](NC(=O)[C@@H](NC(=O)[C@H](CC(C)C)NC(=O)[C@H](Cc1c[nH]cn1)NC(=O)[C@H](CCSC)NC(C)=O)C(C)C)[C@@H](C)CC)[C@@H](C)O)[C@@H](C)O)C(=O)N[C@@H](CS)C(=O)N[C@@H](Cc1ccc(O)cc1)C(=O)N[C@@H](CS)C(=O)N[C@@H](Cc1ccc(O)cc1)C(=O)N[C@@H](CO)C(=O)N[C@@H](CS)C(=O)N[C@H](C(=O)N1CCC[C@H]1C(=O)N[C@@H](CC(N)=O)C(N)=O)[C@@H](C)O [#4] (Ac-MHLVICDCYCTTDICYCYSCTPN-NH2)
- Aβ production inhibition (bands quantified with densitometry) [1]: excellent Aβ production inhibition effect
- bands indicating Aβ in the cerebrum (Western blotting) ([1]; compared to DMSO): the number of bands indicating Aβ was reduced
- cleavage activity of γ-secretase against βCTF (Aβ40 from C99-FLAG) [2]: inhibited more cleavage activity of γ-secretase against βCTF
- presence of polypeptide in CA1 region (fluorescent microscopy) [3]: a portion dyed green indicating the presence of #4 polypeptide was confirmed
- presence of polypeptide in choroid plex (CPLV) [3]: a portion dyed green indicating the presence of #4 polypeptide was confirmed in the blood vessel
- presence of polypeptide in dentate gyrus (DG) [3]: a portion dyed green indicating the presence of #4 polypeptide was also confirmed
- binding to APP in cells [4]: binded to APP in the cells
- cleavage activity of β-secretase against APP (Aβ33-FLAG) ([5]; polypeptide 50 μM, 4 hours, 37° C., Western blotting): inhibit the cleavage activity of β-secretase against APP more intensely
- cleavage activity of β-secretase against APP ([5]; polypeptide 1, 5, 10, 20, 50, and 100 μM): inhibited the cleavage activity of β-secretase against APP in a concentration-dependent manner
- entry into cells ([6]; CHO-K1 and 7WD10 cells): entering the cells
- binding to intracellular APP ([6]; avidin-modified Alexa488, 7WD10 cells overexpressing APP): remarkably binded also to the intracellular APP
- production of Aβ in the culture medium [7]: the production of Aβ in the culture medium was reduced
